Experiments:
HIV = settings: natural products; reported previously, ref [10a]; cited from earlier work
HIV RT RNaseH = type: binding, HIV-1; settings: natural product

| Molecule | Cell-Based Assays Antiviral EC50 (HIV) | HIV RT RNaseH Assays ThermoFluor ΔTm (HIV RT RNaseH) [°C] |
| --- | --- | --- |
| manicol | n.p. (‘n.p.’ indicates no protective effects (<35% cell viability throughout assay)) |  |
| CC(C)c1ccc(O)c(=O)c(O)c1 [β-thujaplicinol] | n.p. (‘n.p.’ indicates no protective effects (<35% cell viability throughout assay)) | 2.34 |

— paper PMC5228208 (MedChemComm, 2016)
